Experimental data: patent US11382892B2, “Method for administration” (Hoffmann-La Roche Inc., priority 2012, dated 2022)
Where “and” joins values, the source holds several entries; their conditions need not be identical. Equal values may be shown once.

Assays:
[1] = Toxicity summary (body weight, mortality) in MOLM-13 xenograft study; format: in vivo; settings: MOLM-13 study
Source text: In the examples below, weight loss was graphically represented as percent change in mean group body weight, using the formula: ((W−W0)/W0)×100, where ‘W’ represents mean body weight of the treated group at a particular day, and ‘W0’ represents mean body weight of the same treated group at initiation of treatment.
Female SCID:beige mice (10/group), obtained from Charles River Laboratories (Wilmington, Del.) were utilized when they were approximately 8-10 weeks of age and weighed 21-23 g. The health of the mice was assessed daily by gross observation and analyses of blood samples taken from sentinel animals housed on shared shelf racks. All animals were allowed to acclimate and recover from any shipping-related stress for a minimum of 72 hours prior to experimental use. Autoclaved water and irradiated food (5058-ms Pico Lab mouse chow, Purina Mills, Richmond, Ind.) were provided ad libitum, and the animals were maintained on a 12 hour light and dark cycle. Cages, bedding and water bottles were autoclaved before use and changed weekly. All animal experiments were conducted in accordance with the Guide for the Care and Use of Laboratory Animals, local regulations, and protocols approved by the Roche Animal Care and Use Committee in an AAALAC accredited facility.
Treatment duration was initiated on day 3 and was for 2 weeks. Animal body weights were measured three times per week and animals were monitored for clinical signs daily.

MDM2 mRNA = MDM2 mRNA assay in patient tumor biopsies; format: in vivo, human; settings: for MDM2 mRNA Average FCBL: cohort average; for MDM2 mRNA Median FCBL: cohort median; for MDM2 mRNA FCBL: individual patients, tumor biopsy vs baseline
Experimental: (§1) The 10 mg tablets contain hypromellose acetate succinate, mannitol, microcrystalline cellulose, croscarmellose sodium, colloidal silicon dioxide, and magnesium stearate. The film-coat consists of hypromellose, titanium dioxide, talc, triacetin, iron oxide yellow, and iron oxide red. The 50 mg, 200 mg, and 400 mg film coated tablets contain the excipients hypromellose acetate succinate, croscarmellose sodium, colloidal silicon dioxide, and magnesium stearate. The film-coat consists of polyvinyl alcohol, titanium dioxide, polyethylene glycol, talc, iron oxide yellow, iron oxide red, and iron oxide black.
(§2) Tumor biopsies were collected at baseline and cycle 1, day 5±2.

Ki-67 protein = assay: Ki-67 IHC assay in patient tumor biopsies; format: in vivo, human; settings: for Ki-67 IHC Average % CBL: cohort average; for Ki-67 IHC Median % CBL: cohort median; for Ki-67 IHC % CBL: individual patients, tumor biopsy vs baseline
Experimental: as §1, §2
The Ki-67 protein is a cellular marker for proliferation. It is strictly associated with cell proliferation and can be measured in tissue sections via immunohistochemistry to determine degree of proliferation. Ki-67 protein is present during all active phases of the cell cycle (G1, S, G2, and mitosis), but is absent from resting cells (00).

Structure (SMILES): COc1cc(C(=O)O)ccc1NC(=O)[C@@H]1N[C@@H](CC(C)(C)C)[C@](C#N)(c2ccc(Cl)cc2F)[C@H]1c1cccc(Cl)c1F [Compound A, 4-{[(2R,3S,4R,5S)-4-(4-Chloro-2-fluoro-phenyl)-3-(3-chloro-2-fluoro-phenyl)-4-cyano-5-(2,2-dimethyl-propyl)-pyrrolidine-2-carbonyl]-amino}-3-methoxy-benzoic acid]
- treatment related toxicity ([1]; 80 mg/kg qd × 5 po): absence of treatment related toxicity
- # of animals ≥20% BWL ([1]; 80 mg/kg qdx5 po): 0
- % Change in Body Weight at end of Study Day 17 ([1]; 80 mg/kg qdx5 po): −3.2%
- Maximum % Weight gain ([1]; 80 mg/kg qdx5 po): −3.2%
- Maximum % Weight loss ([1]; 80 mg/kg qdx5 po): −5.5%
- Mortality (reason) ([1]; 80 mg/kg qdx5 po, reason: dosing injury): 1 (dosing
- MDM2 mRNA Average FCBL (MDM2 mRNA; BM-A1 800 mg bid Qwk × 3): 1.2
- MDM2 mRNA Median FCBL (MDM2 mRNA; BM-A1 800 mg bid Qwk × 3): 1.1
- MDM2 mRNA FCBL (MDM2 mRNA; BM-A1 800 mg bid Qwk × 3): 1.0 and 1.4 and 1.1
- MDM2 mRNA Average FCBL (MDM2 mRNA; BM-A2 1200 mg bid Qwk × 3): 1.4
- MDM2 mRNA Median FCBL (MDM2 mRNA; BM-A2 1200 mg bid Qwk × 3): 1.3
- MDM2 mRNA FCBL (MDM2 mRNA; BM-A2 1200 mg bid Qwk × 3): 1.0 (2×) and 1.8 and 2.1 and 1.3
- MDM2 mRNA Average FCBL (MDM2 mRNA; BM-B1 400 mg bid × 5 d): 8.5
- MDM2 mRNA Median FCBL (MDM2 mRNA; BM-B1 400 mg bid × 5 d): 8.7
- MDM2 mRNA FCBL (MDM2 mRNA; BM-B1 400 mg bid × 5 d): 5.4 and 3.7 and 12.1 and 12.9
- MDM2 mRNA Average FCBL (MDM2 mRNA; BM-B2 500 mg bid × 3 d): 5.1
- MDM2 mRNA Median FCBL (MDM2 mRNA; BM-B2 500 mg bid × 3 d): 1.3
- MDM2 mRNA FCBL (MDM2 mRNA; BM-B2 500 mg bid × 3 d): 0.2 and 0.7 and 1.3 and 3.8 and 19.6
- MDM2 mRNA Average FCBL (MDM2 mRNA; BM-B3 500 mg qd × 5 d): 2.4
- MDM2 mRNA Median FCBL (MDM2 mRNA; BM-B3 500 mg qd × 5 d): 2.0
- MDM2 mRNA FCBL (MDM2 mRNA; BM-B3 500 mg qd × 5 d): 1.5 and 2.5 and 4.2 and 1.2
- levels of MDM2 mRNA expression in patient's tumors (MDM2 mRNA; doses and schedules of Table 8): increase in the levels of MDM2 mRNA expression
- Ki-67 IHC Average % CBL (Ki-67 protein; BM-A1 800 mg bid Qwk × 3): −8.5%
- Ki-67 IHC Median % CBL (Ki-67 protein; BM-A1 800 mg bid Qwk × 3): −8.5%
- Ki-67 IHC % CBL (Ki-67 protein; BM-A1 800 mg bid Qwk × 3): 14% and −31%
- Ki-67 IHC Average % CBL (Ki-67 protein; BM-A2 1200 mg bid Qwk × 3): −27.8%
- Ki-67 IHC Median % CBL (Ki-67 protein; BM-A2 1200 mg bid Qwk × 3): −33.0%
- Ki-67 IHC % CBL (Ki-67 protein; BM-A2 1200 mg bid Qwk × 3): −57% and 30% and −5% and −75% and −33%
- Ki-67 IHC Average % CBL (Ki-67 protein; BM-B1 400 mg bid × 5 d): −17.7%
- Ki-67 IHC Median % CBL (Ki-67 protein; BM-B1 400 mg bid × 5 d): −13.0%
- Ki-67 IHC % CBL (Ki-67 protein; BM-B1 400 mg bid × 5 d): −97% and −13% and 57%
- Ki-67 IHC Average % CBL (Ki-67 protein; BM-B2 500 mg bid × 3 d): −53.9%
- Ki-67 IHC Median % CBL (Ki-67 protein; BM-B2 500 mg bid × 3 d): −69.8%
- Ki-67 IHC % CBL (Ki-67 protein; BM-B2 500 mg bid × 3 d): 3% and −70% (2×) and −79%
- Ki-67 IHC Average % CBL (Ki-67 protein; BM-B3 500 mg qd × 5 d): −57.1%
- Ki-67 IHC Median % CBL (Ki-67 protein; BM-B3 500 mg qd × 5 d): −66.5%
- Ki-67 IHC % CBL (Ki-67 protein; BM-B3 500 mg qd × 5 d): −67% and −96% and −8%
- tumor proliferation via Ki67 (Ki-67 protein; doses and schedules of Table 9): Decrease levels of tumor proliferation
